# Values of other authors, collected in patent US20090263481A1, “LEVETIRACETAM FORMULATIONS” (priority 2008, published 2009).
# Like-named read-outs stand apart in the source and are kept apart here.
# Tests used:
# [1] = not given; remark: listed apart in the source
smiles,measurement,setting,value
"CC[C@@H](C(N)=O)N1CCCC1=O [Levetiracetam, (−)-(S)-α-ethyl-2-oxo-1-pyrrolidine acetamide]",bound to plasma proteins,plasma proteins,less than 10%
same,solubility (descriptive),acetonitrile,sparingly soluble
same,solubility (descriptive),chloroform,freely soluble
same,solubility (descriptive),ethanol,soluble
same,solubility (descriptive),methanol,freely soluble
same,solubility (descriptive),n-hexane,practically insoluble
same,aqueous solubility,water,104 g/100 mL
same,solubility (descriptive),water,very soluble
same,dose range over which pharmacokinetics are linear,[1]; in vivo,500 to 5000 mg
same,absorption after oral administration (descriptive),[1]; oral administration,rapidly and almost completely absorbed
same,time of peak plasma concentrations,[1]; oral administration to fasted subjects,one
same,decrease of Cmax by food,"[1]; oral, with food",20%
same,time to steady state,[1]; twice-daily dosing,2 days
